Measurements as given in patent US20030073618A1, “Compounds comprising disulfide-containing peptides and nitrogenous bases, and medical uses thereof” (priority 2001, published 2003).
Where two headings read alike, the source gives them in different places. Marks after values point to notes of the source that are not given here.

Tests used:
hepatitis C virus (HCV) = assay: Efficacy study in chronic viral hepatitis C, 74 patients (Tables 54-55)
hepatitis B virus (HBV) [1] = assay: Efficacy study in acute viral hepatitis B with severe course, 35 patients (Tables 50-53); format: in vivo, human
From the text: (§1) State of patient upon completion of treatment.

hepatitis B virus (HBV) [2] = assay: Efficacy study in chronic viral hepatitis B, 62 patients (Tables 47-49); format: in vivo, human; details: month 1 (after treatment)
From the text: as §1

hepatitis B virus (HBV) [3] = assay: as above; format: in vivo, human
[4] = system: ATP-ase/helicase (NS3 of hepatitis C virus)
ATP-ase/helicase = ATP-ase/helicase activity in lysate of donor lymphocyte nuclei
[5] = month 2 (1 month after treatment)
[6] = month 4 (3 months after treatment)
[7] = 100 μg/ml, 200 pg M13 phage DNA
[8] = 100 μg/ml, 500 pg M13 phage DNA
[9] = 100 μg/ml, 800 pg M13 phage DNA
[10] = compared with GSSG-I and GSSG-IMP
[11] = 100 μg/ml, 100 pg M13 phage DNA

Nc1ccn([C@H]2CC[C@@H](CO)O2)c(=O)n1 [Hivid]
ALT in Chronic HCV Infection (hepatitis C virus (HCV); Baseline (before treatment)): 187.5 ± 48.4 U/L
ALT in Chronic HCV Infection (hepatitis C virus (HCV); month 1 (after treatment)): **190 ± 71.1 U/L
ALT in Chronic HCV Infection (hepatitis C virus (HCV); [5]): **153 ± 25.3 U/L
ALT in Chronic HCV Infection (hepatitis C virus (HCV); [6]): **151 ± 25.2 U/L

C[C@]12C=CC(=O)C=C1CC[C@@H]1[C@@H]2[C@@H](O)C[C@@]2(C)[C@H]1CC[C@]2(O)C(=O)CO [Prednisolone]
ALT in Severe HBV Infection (hepatitis B virus (HBV) [1]; Baseline (before treatment)): 1657.9 ± 96.5 U/L
Bilirubin in Severe HBV Infection (hepatitis B virus (HBV) [1]; Baseline (before treatment)): 313.9 ± 62.6 µmol/L
HbsAg in Severe HBV Infection (hepatitis B virus (HBV) [1]; Baseline (before treatment)): 189.7 ± 20.4 ng/mL
PCR (%) in Severe HBV Infection (hepatitis B virus (HBV) [1]; Baseline (before treatment)): 100%
ALT in Severe HBV Infection (hepatitis B virus (HBV) [1]; month 1 (after treatment)): **293.8 ± 18.8 U/L
Bilirubin in Severe HBV Infection (hepatitis B virus (HBV) [1]; month 1 (after treatment)): **86.9 ± 21.9 μmole/L
HbsAg in Severe HBV Infection (hepatitis B virus (HBV) [1]; month 1 (after treatment)): **97.8 ± 18.6 ng/mL
PCR (%) in Severe HBV Infection (hepatitis B virus (HBV) [1]; month 1 (after treatment)): **66.7%
ALT in Severe HBV Infection (hepatitis B virus (HBV) [1]; [5]): **145.4 ± 15.5 U/L
Bilirubin in Severe HBV Infection (hepatitis B virus (HBV) [1]; [5]): **31.4 ± 14.6 μmole/L
HbsAg in Severe HBV Infection (hepatitis B virus (HBV) [1]; [5]): **87.7 ± 12.7 ng/mL
PCR (%) in Severe HBV Infection (hepatitis B virus (HBV) [1]; [5]): **66.7%
ALT in Severe HBV Infection (hepatitis B virus (HBV) [1]; [6]): **65.3 ± 15.7 U/L
Bilirubin in Severe HBV Infection (hepatitis B virus (HBV) [1]; [6]): **26.84 ± 13.99 μmole/L
HbsAg in Severe HBV Infection (hepatitis B virus (HBV) [1]; [6]): **76.6 ± 15.4 ng/mL
PCR (%) in Severe HBV Infection (hepatitis B virus (HBV) [1]; [6]): **53.3%

CC(C)(C)NC(=O)[C@@H]1C[C@@H]2CCCC[C@@H]2CN1C[C@@H](O)[C@H](Cc1ccccc1)NC(=O)[C@H](CC(N)=O)NC(=O)c1ccc2ccccc2n1 [Invirasa]
ALT in Chronic HBV Infection (hepatitis B virus (HBV) [2]): **90.8 ± 5.5 U/L
HbsAg in Chronic HBV Infection (hepatitis B virus (HBV) [2]): **109.0 ± 54.5 ng/mL
PCR (%) in Chronic HBV Infection (hepatitis B virus (HBV) [2]): **70.0* %
ALT in Chronic HBV Infection (hepatitis B virus (HBV) [3]; Baseline (before treatment)): 165.7 ± 17.0 U/L
HbsAg in Chronic HBV Infection (hepatitis B virus (HBV) [3]; Baseline (before treatment)): 137.0 ± 20.6 ng/mL
PCR (%) in Chronic HBV Infection (hepatitis B virus (HBV) [3]; Baseline (before treatment)): 100%
ALT in Chronic HBV Infection (hepatitis B virus (HBV) [3]; [5]): **71.4 ± 6.5 U/L
HbsAg in Chronic HBV Infection (hepatitis B virus (HBV) [3]; [5]): **112.2 ± 22.2 ng/mL
PCR (%) in Chronic HBV Infection (hepatitis B virus (HBV) [3]; [5]): **60.0* %
ALT in Chronic HBV Infection (hepatitis B virus (HBV) [3]; [6]): **71.8 ± 7.4 U/L
HbsAg in Chronic HBV Infection (hepatitis B virus (HBV) [3]; [6]): **172.0 ± 14.5 ng/mL
PCR (%) in Chronic HBV Infection (hepatitis B virus (HBV) [3]; [6]): **60.0%

CC(=O)OCC(CCn1cnc2cnc(N)nc21)COC(C)=O [Famvir]
ALT in Chronic HBV Infection (hepatitis B virus (HBV) [2]): **70.2 ± 9.1 U/L
HbsAg in Chronic HBV Infection (hepatitis B virus (HBV) [2]): **150.5 ± 10.43 ng/mL
PCR (%) in Chronic HBV Infection (hepatitis B virus (HBV) [2]): **50.0* %
ALT in Chronic HBV Infection (hepatitis B virus (HBV) [3]; Baseline (before treatment)): 165.7 ± 13.8 U/L
HbsAg in Chronic HBV Infection (hepatitis B virus (HBV) [3]; Baseline (before treatment)): 157.8 ± 8.84 ng/mL
PCR (%) in Chronic HBV Infection (hepatitis B virus (HBV) [3]; Baseline (before treatment)): 100%
ALT in Chronic HBV Infection (hepatitis B virus (HBV) [3]; [5]): **75.9 ± 9.6 U/L
HbsAg in Chronic HBV Infection (hepatitis B virus (HBV) [3]; [5]): **153.5 ± 10.14 ng/mL
PCR (%) in Chronic HBV Infection (hepatitis B virus (HBV) [3]; [5]): **60.0%
ALT in Chronic HBV Infection (hepatitis B virus (HBV) [3]; [6]): **77.9 ± 10.2 U/L
HbsAg in Chronic HBV Infection (hepatitis B virus (HBV) [3]; [6]): **132.5 ± 43.76 ng/mL
PCR (%) in Chronic HBV Infection (hepatitis B virus (HBV) [3]; [6]): **20.0%

N[C@@H](CCC(=O)N[C@@H](CSSC[C@H](NC(=O)CC[C@H](NP(=O)(O)OC[C@H]1O[C@@H](n2ccc(=O)[nH]c2=O)[C@H](O)[C@@H]1O)C(=O)O)C(=O)NCC(=O)[O-])C(=O)NCC(=O)[O-])C(=O)O.[Na+].[Na+] [GSSG-UMP]
Radioactive fraction, high-molecular ([4]; 10 μg/ml, 20 pg M13 phage DNA): 16 ± 1/
Radioactive fraction, low-molecular ([4]; 10 μg/ml, 20 pg M13 phage DNA): 84 ± 5
Radioactive fraction, high-molecular ([4]; 10 μg/ml, 50 pg M13 phage DNA): 17.5 ± 1.5/
Radioactive fraction, low-molecular ([4]; 10 μg/ml, 50 pg M13 phage DNA): 82.5 ± 8.5
Radioactive fraction, high-molecular ([4]; 10 μg/ml, 200 pg M13 phage DNA): 45 ± 4/
Radioactive fraction, low-molecular ([4]; 10 μg/ml, 200 pg M13 phage DNA): 55 ± 5
Radioactive fraction, high-molecular ([4]; 10 μg/ml, 500 pg M13 phage DNA): 73.5 ± 5.5/
Radioactive fraction, low-molecular ([4]; 10 μg/ml, 500 pg M13 phage DNA): 27.5 ± 1.5
Radioactive fraction, high-molecular ([4]; 10 μg/ml, 800 pg M13 phage DNA): 92.0 ± 5/
Radioactive fraction, low-molecular ([4]; 10 μg/ml, 800 pg M13 phage DNA): 8 ± 1
Radioactive fraction, high-molecular ([4]; 50 μg/ml, 20 pg M13 phage DNA): 32 ± 2.5*/
Radioactive fraction, low-molecular ([4]; 50 μg/ml, 20 pg M13 phage DNA): 78 ± 7
Radioactive fraction, high-molecular ([4]; 50 μg/ml, 50 pg M13 phage DNA): 34 ± 3*/
Radioactive fraction, low-molecular ([4]; 50 μg/ml, 50 pg M13 phage DNA): 66 ± 7
Radioactive fraction, high-molecular ([4]; 50 μg/ml, 200 pg M13 phage DNA): 51 ± 4/
Radioactive fraction, low-molecular ([4]; 50 μg/ml, 200 pg M13 phage DNA): 49 ± 5
Radioactive fraction, high-molecular ([4]; 50 μg/ml, 500 pg M13 phage DNA): 74 ± 5/
Radioactive fraction, low-molecular ([4]; 50 μg/ml, 500 pg M13 phage DNA): 26 ± 2
Radioactive fraction, high-molecular ([4]; 50 μg/ml, 800 pg M13 phage DNA): 92.5 ± 6.5/
Radioactive fraction, low-molecular ([4]; 50 μg/ml, 800 pg M13 phage DNA): 7.5 ± 1
Radioactive fraction, high-molecular ([4]; 100 μg/ml, 20 pg M13 phage DNA): 36 ± 2*/
Radioactive fraction, low-molecular ([4]; 100 μg/ml, 20 pg M13 phage DNA): 64 ± 5
Radioactive fraction, high-molecular ([4]; 100 μg/ml, 50 pg M13 phage DNA): 41 ± 4*/
Radioactive fraction, low-molecular ([4]; 100 μg/ml, 50 pg M13 phage DNA): 59 ± 6
Radioactive fraction, high-molecular [4, 7]: 57.5 ± 7.5*/
Radioactive fraction, low-molecular [4, 7]: 42.5 ± 3.5
Radioactive fraction, high-molecular [4, 8]: 75.5 ± 6.5/
Radioactive fraction, low-molecular [4, 8]: 24.5 ± 3.5
Radioactive fraction, high-molecular [4, 9]: 92.5 ± 6.5/
Radioactive fraction, low-molecular [4, 9]: 7.5 ± 1
Relative inhibition of ATP-ase/helicase activity [4, 10]: maximal inhibitory effect
Radioactive fraction, high-molecular (ATP-ase/helicase; 10 μg/ml, 5 pg M13 phage DNA): 16 ± 1/
Radioactive fraction, low-molecular (ATP-ase/helicase; 10 μg/ml, 5 pg M13 phage DNA): 84 ± 5
Radioactive fraction, high-molecular (ATP-ase/helicase; 10 μg/ml, 20 pg M13 phage DNA): 20 ± 2/
Radioactive fraction, low-molecular (ATP-ase/helicase; 10 μg/ml, 20 pg M13 phage DNA): 80 ± 5
Radioactive fraction, high-molecular (ATP-ase/helicase; 10 μg/ml, 50 pg M13 phage DNA): 41 ± 32/
Radioactive fraction, low-molecular (ATP-ase/helicase; 10 μg/ml, 50 pg M13 phage DNA): 59 ± 5
Radioactive fraction, high-molecular (ATP-ase/helicase; 10 μg/ml, 100 pg M13 phage DNA): 72 ± 4.5/
Radioactive fraction, low-molecular (ATP-ase/helicase; 10 μg/ml, 100 pg M13 phage DNA): 28 ± 2.5
Radioactive fraction, high-molecular (ATP-ase/helicase; 10 μg/ml, 200 pg M13 phage DNA): 92 ± 7/
Radioactive fraction, low-molecular (ATP-ase/helicase; 10 μg/ml, 200 pg M13 phage DNA): 8 ± 2
Radioactive fraction, high-molecular (ATP-ase/helicase; 50 μg/ml, 5 pg M13 phage DNA): 32.5 ± 1.5*/
Radioactive fraction, low-molecular (ATP-ase/helicase; 50 μg/ml, 5 pg M13 phage DNA): 67.5 ± 5.5
Radioactive fraction, high-molecular (ATP-ase/helicase; 50 μg/ml, 20 pg M13 phage DNA): 37.5 ± 2.5*/
Radioactive fraction, low-molecular (ATP-ase/helicase; 50 μg/ml, 20 pg M13 phage DNA): 62.5 ± 5.5
Radioactive fraction, high-molecular (ATP-ase/helicase; 50 μg/ml, 50 pg M13 phage DNA): 59 ± 5*/
Radioactive fraction, low-molecular (ATP-ase/helicase; 50 μg/ml, 50 pg M13 phage DNA): 41 ± 4
Radioactive fraction, high-molecular (ATP-ase/helicase; 50 μg/ml, 100 pg M13 phage DNA): 80 ± 6/
Radioactive fraction, low-molecular (ATP-ase/helicase; 50 μg/ml, 100 pg M13 phage DNA): 20 ± 3.5
Radioactive fraction, high-molecular (ATP-ase/helicase; 50 μg/ml, 200 pg M13 phage DNA): 90.5 ± 6/
Radioactive fraction, low-molecular (ATP-ase/helicase; 50 μg/ml, 200 pg M13 phage DNA): 9.5 ± 1.5
Radioactive fraction, high-molecular (ATP-ase/helicase; 100 μg/ml, 5 pg M13 phage DNA): 42 ± 3*/
Radioactive fraction, low-molecular (ATP-ase/helicase; 100 μg/ml, 5 pg M13 phage DNA): 58 ± 4
Radioactive fraction, high-molecular (ATP-ase/helicase; 100 μg/ml, 20 pg M13 phage DNA): 49.5 ± 4*/
Radioactive fraction, low-molecular (ATP-ase/helicase; 100 μg/ml, 20 pg M13 phage DNA): 50.5 ± 5
Radioactive fraction, high-molecular (ATP-ase/helicase; 100 μg/ml, 50 pg M13 phage DNA): 67 ± 5*/
Radioactive fraction, low-molecular (ATP-ase/helicase; 100 μg/ml, 50 pg M13 phage DNA): 33 ± 3.5
Radioactive fraction, high-molecular (ATP-ase/helicase; [11]): 84 ± 6.5/
Radioactive fraction, low-molecular (ATP-ase/helicase; [11]): 16 ± 1.5
Radioactive fraction, high-molecular (ATP-ase/helicase; [7]): 92.5 ± 8/
Radioactive fraction, low-molecular (ATP-ase/helicase; [7]): 7.5 ± 2
Relative inhibition of ATP-ase/helicase activity (ATP-ase/helicase; [10]): inhibits ATP-ase/helicase activity most of all
